According to patent publication US20230329236A1, “HERBICIDAL PYRIMIDINE DERIVATIVES” (MoA Technology Limited, priority 2020, published 2023):

Experiments:
Details in all cases: 336 h, Table 3, post-emergence, 14±1 days post application
[1] = test system: Amaranthus retroflexus (AMARE); experiment: Post-emergence glasshouse test, visual injury, AMARE; type: in vivo
In short: (§1)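 Plants raised in sandy loam soil were sprayed post-emergence at BBCH 12-14 with compound formulated in acetone/water (50:50) containing 0.5% Tween 20, applied at set rates in g/ha. After 14±1 days in a controlled glasshouse, damage was scored visually as percent injury versus untreated plots.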

[2] = test system: Lolium multiflorum (LOLMU); experiment: Post-emergence glasshouse test, visual injury, LOLMU; type: in vivo
In short: as §1

[3] = test system: Echinochloa crus-gaffi (ECHCG); experiment: Post-emergence glasshouse test, visual injury, ECHCG; type: in vivo, Echinochloa crus-galli
In short: as §1

Veronica persica (VERPE) = experiment: Post-emergence glasshouse test, visual injury, VERPE; type: in vivo
In short: as §1

| SMILES | pest or weed control at 125 g/ha [1] [%] | pest or weed control at 125 g/ha [2] [%] | pest or weed control at 125 g/ha [3] [%] | pest or weed control at 125 g/ha (Veronica persica (VERPE)) [%] | pest or weed control at 500 g/ha [1] [%] | pest or weed control at 500 g/ha [2] [%] | pest or weed control at 500 g/ha [3] [%] | pest or weed control at 500 g/ha (Veronica persica (VERPE)) [%] |
| --- | --- | --- | --- | --- | --- | --- | --- | --- |
| Cc1cc(-c2cnc(NCc3cccc(F)c3)nc2C(F)(F)F)on1 [Compound 126] | 95 | 0 | 70 | 100 | – | – | – | – |
| Cc1cc(-c2cnc(NCCc3c(C)noc3C)nc2C(C)(C)C)on1 [Compound 68] | – | – | – | – | 80 | 0 | 0 | 0 |
| COc1ccc(CNc2ncc(-c3onc(C)c3C)c(-c3ccco3)n2)cc1 [Compound 77] | – | – | – | – | 70 | 70 | 80 | 70 |
| Cc1cc(-c2cnc(NCc3cccnc3)nc2C(F)(F)F)on1 [Compound 111] | 0 | 10 | 0 | 0 | – | – | – | – |
